Laboratory results: US12162840B2, “Herbicidal compositions” (SYNGENTA PARTICIPATIONS AG, priority 2018, dated 2024)

How the values were obtained:
Format in all cases: in vivo
[1] = system: Amaranthus retoflexus (AMARE); test: B1 Post-emergence efficacy Test 1; conditions: post-emergence application, 1000 g/ha, evaluated after 13 days
How it was run: (§1)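 Damage ratings on a 1–5 scale (5=80-100%, 4=60-79%, 3=40-59%, 2=20-39%, 1=0-19%) come from visual assessment 13 days after spraying. Plants were treated at 8 days post-sowing with 1000 g/ha in acetone/water (50:50) containing 0.5% Tween 20.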

[2] = system: Ipomoea hederacea (IPOHE); test: B1 Post-emergence efficacy Test 1; conditions: post-emergence application, 1000 g/ha, evaluated after 13 days
How it was run: as §1

Lolium perenne (LOLPE) = test: B1 Post-emergence efficacy Test 1; conditions: post-emergence application, 1000 g/ha, evaluated after 13 days
How it was run: as §1

[3] = system: Echinochloa crus-galli (ECHCG); test: B1 Post-emergence efficacy Test 1; conditions: post-emergence application, 1000 g/ha, evaluated after 13 days
How it was run: as §1

Solanum nigrum (SOLNI) = test: B1 Post-emergence efficacy Test 1; conditions: post-emergence application, 1000 g/ha, evaluated after 13 days
How it was run: as §1

Setaria faberi (SETFA) = test: B1 Post-emergence efficacy Test 1; conditions: post-emergence application, 1000 g/ha, evaluated after 13 days
How it was run: as §1

[4] = system: warm season plant species; test: B2 Post-emergence efficacy Test 2, warm season plant species; conditions: 15 days after application, 0-100 scale, 0=no damage, 100=total kill; for Herbicidal activity, ABUTH: Abutilon theophrasti; for Herbicidal activity, AMARE: Amaranthus retroflexus; for Herbicidal activity, BIDPI: Bidens pilosa; for Herbicidal activity, BRAPL: Brachiaria plantaginea; for Herbicidal activity, DIGSA: Digitaria sanguinalis; for Herbicidal activity, ECHCG: Echinochloa crus galli; for Herbicidal activity, ELEIN: Eleisine indica; for Herbicidal activity, EPHHL: Euphorbia hetrophylla; for Herbicidal activity, GLXMA: Glycine max; for Herbicidal activity, IPOHE: Ipomoea hederacea; for Herbicidal activity, ORYSA: Orysa sativa; for Herbicidal activity, PANMI: Panicum miliaceum; for Herbicidal activity, SETFA: Setaria faberi; for Herbicidal activity, SIDSP: Sida spinosa; for Herbicidal activity, SORVU: Sorghum bicolour; for Herbicidal activity, XANST: Xanthium strumarium; for Herbicidal activity, ZEAMX: Zea mays
How it was run: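 Herbicidal effect rated visually 0 (no damage) to 100 (complete kill) at 15 days post-treatment. Post-emergence spray at 12 days used an IF50 formulation with 0.2% v/v Genapol XO80 adjuvant; glasshouse 24/18 or 20/16 °C, 16 h light, 65% humidity.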

## Cc1nn(C)c(=O)c(-c2c(F)ccc(Cl)c2CCc2ccc(F)cc2)c1OC(=O)C(C)C [Compound 1.125]
[1]
  percentage damage caused to the plant, five point scale, AMARE: 5 (5=80-100%)
[2]
  percentage damage caused to the plant, five point scale, IPOHE: 5 (5=80-100%)
Lolium perenne (LOLPE)
  percentage damage caused to the plant, five point scale, LOLPE: 5 (5=80-100%)
[3]
  percentage damage caused to the plant, five point scale, ECHCG: 5 (5=80-100%)
Solanum nigrum (SOLNI)
  percentage damage caused to the plant, five point scale, SOLNI: 5 (5=80-100%)
Setaria faberi (SETFA)
  percentage damage caused to the plant, five point scale, SETFA: 5 (5=80-100%)
[4]; 15 g/Ha
  Herbicidal activity, ABUTH: 80
  Herbicidal activity, AMARE: 80
  Herbicidal activity, BIDPI: 60
  Herbicidal activity, BRAPL: 80
  Herbicidal activity, DIGSA: 0
  Herbicidal activity, ECHCG: 70
  Herbicidal activity, ELEIN: 40
  Herbicidal activity, EPHHL: 90
  Herbicidal activity, GLXMA: 40
  Herbicidal activity, IPOHE: 90
  Herbicidal activity, ORYSA: 0
  Herbicidal activity, PANMI: 20
  Herbicidal activity, SETFA: 0
  Herbicidal activity, SORVU: 0
  Herbicidal activity, ZEAMX: 0
[4]; 30 g/Ha
  Herbicidal activity, ABUTH: 90
  Herbicidal activity, AMARE: 90
  Herbicidal activity, BIDPI: 60
  Herbicidal activity, DIGSA: 0
  Herbicidal activity, ECHCG: 80
  Herbicidal activity, ELEIN: 40
  Herbicidal activity, EPHHL: 90
  Herbicidal activity, GLXMA: 70
  Herbicidal activity, IPOHE: 100
  Herbicidal activity, ORYSA: 0
  Herbicidal activity, PANMI: 30
  Herbicidal activity, SETFA: 10
  Herbicidal activity, SORVU: 50
  Herbicidal activity, XANST: 90
  Herbicidal activity, ZEAMX: 20
[4]; 60 g/Ha
  Herbicidal activity, ABUTH: 90
  Herbicidal activity, AMARE: 90
  Herbicidal activity, BIDPI: 70
  Herbicidal activity, BRAPL: 80
  Herbicidal activity, DIGSA: 0
  Herbicidal activity, ECHCG: 80
  Herbicidal activity, ELEIN: 70
  Herbicidal activity, EPHHL: 100
  Herbicidal activity, GLXMA: 70
  Herbicidal activity, IPOHE: 100
  Herbicidal activity, ORYSA: 0
  Herbicidal activity, PANMI: 50
  Herbicidal activity, SETFA: 20
  Herbicidal activity, SIDSP: 80
  Herbicidal activity, SORVU: 50
  Herbicidal activity, XANST: 90
  Herbicidal activity, ZEAMX: 30
[4]; 125 g/Ha
  Herbicidal activity, ABUTH: 90
  Herbicidal activity, AMARE: 100
  Herbicidal activity, BIDPI: 70
  Herbicidal activity, BRAPL: 80
  Herbicidal activity, DIGSA: 10
  Herbicidal activity, ECHCG: 80
  Herbicidal activity, ELEIN: 70
  Herbicidal activity, EPHHL: 100
  Herbicidal activity, IPOHE: 100
  Herbicidal activity, ORYSA: 0
  Herbicidal activity, PANMI: 50
  Herbicidal activity, SETFA: 20
  Herbicidal activity, SIDSP: 90
  Herbicidal activity, SORVU: 70
  Herbicidal activity, XANST: 90
  Herbicidal activity, ZEAMX: 20
[4]; 250 g/Ha
  Herbicidal activity, ABUTH: 100
  Herbicidal activity, AMARE: 100
  Herbicidal activity, BIDPI: 80
  Herbicidal activity, BRAPL: 70
  Herbicidal activity, DIGSA: 30
  Herbicidal activity, ECHCG: 90
  Herbicidal activity, ELEIN: 80
  Herbicidal activity, EPHHL: 100
  Herbicidal activity, GLXMA: 90
  Herbicidal activity, IPOHE: 100
  Herbicidal activity, ORYSA: 0
  Herbicidal activity, PANMI: 70
  Herbicidal activity, SETFA: 20
  Herbicidal activity, SIDSP: 90
  Herbicidal activity, SORVU: 80
  Herbicidal activity, XANST: 90
  Herbicidal activity, ZEAMX: 40
[4]; 500 g/Ha
  Herbicidal activity, ABUTH: 100
  Herbicidal activity, AMARE: 100
  Herbicidal activity, BIDPI: 100
  Herbicidal activity, BRAPL: 80
  Herbicidal activity, DIGSA: 70
  Herbicidal activity, ECHCG: 100
  Herbicidal activity, ELEIN: 80
  Herbicidal activity, EPHHL: 100
  Herbicidal activity, GLXMA: 90
  Herbicidal activity, IPOHE: 100
  Herbicidal activity, ORYSA: 0
  Herbicidal activity, PANMI: 80
  Herbicidal activity, SETFA: 100
  Herbicidal activity, SIDSP: 100
  Herbicidal activity, SORVU: 90
  Herbicidal activity, XANST: 100
  Herbicidal activity, ZEAMX: 70
